# Values of other authors, collected in US20190000850A1, “COMBINATION CANCER THERAPY” (The Regents of the University of California, priority 2015, published 2019).
# What was measured:
# PKC = details: cited from earlier work
# cdc2 = cdc2 (Homo sapiens, UniProt P06493); details: cited from earlier work
# Chk1 = biological target: T1, Chk1 (Homo sapiens, UniProt O14757); details: read-out: IC50 against primary target (Chk1); cited from earlier work
# T1 sequence (O14757 1-476): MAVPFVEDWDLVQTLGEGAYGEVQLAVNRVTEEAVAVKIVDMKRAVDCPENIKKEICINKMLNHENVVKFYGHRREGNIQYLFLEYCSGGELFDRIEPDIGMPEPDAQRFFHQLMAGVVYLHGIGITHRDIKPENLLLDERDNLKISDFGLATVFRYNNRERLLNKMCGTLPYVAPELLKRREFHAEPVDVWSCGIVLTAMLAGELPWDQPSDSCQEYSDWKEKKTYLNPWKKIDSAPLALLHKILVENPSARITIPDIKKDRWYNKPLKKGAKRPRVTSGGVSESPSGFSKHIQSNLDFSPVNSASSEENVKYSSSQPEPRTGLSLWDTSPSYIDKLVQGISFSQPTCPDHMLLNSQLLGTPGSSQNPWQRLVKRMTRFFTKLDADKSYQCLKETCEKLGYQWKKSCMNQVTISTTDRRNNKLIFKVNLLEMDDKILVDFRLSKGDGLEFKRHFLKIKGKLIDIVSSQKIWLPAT
# Chk2 = Chk2 (Homo sapiens, UniProt O96017); details: read-out: IC50 against Chk2; cited from earlier work
# Chain of Chk2 (O96017 whole entry, species assumed): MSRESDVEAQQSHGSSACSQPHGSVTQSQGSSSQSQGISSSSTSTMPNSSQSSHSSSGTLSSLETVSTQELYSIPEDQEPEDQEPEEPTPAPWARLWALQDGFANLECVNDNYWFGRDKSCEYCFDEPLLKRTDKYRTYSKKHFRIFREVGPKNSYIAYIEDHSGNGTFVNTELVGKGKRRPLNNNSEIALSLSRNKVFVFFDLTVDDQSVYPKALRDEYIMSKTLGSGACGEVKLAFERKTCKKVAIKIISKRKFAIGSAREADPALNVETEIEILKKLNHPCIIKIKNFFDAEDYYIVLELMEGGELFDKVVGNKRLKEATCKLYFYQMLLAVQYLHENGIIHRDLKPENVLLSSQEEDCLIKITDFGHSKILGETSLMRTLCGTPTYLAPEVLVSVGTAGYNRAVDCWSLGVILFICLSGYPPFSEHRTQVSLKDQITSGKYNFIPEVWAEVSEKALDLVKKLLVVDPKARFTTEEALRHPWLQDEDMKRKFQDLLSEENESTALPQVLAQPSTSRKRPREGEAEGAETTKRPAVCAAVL
# Chain of cdc2 (P06493 whole entry, species assumed): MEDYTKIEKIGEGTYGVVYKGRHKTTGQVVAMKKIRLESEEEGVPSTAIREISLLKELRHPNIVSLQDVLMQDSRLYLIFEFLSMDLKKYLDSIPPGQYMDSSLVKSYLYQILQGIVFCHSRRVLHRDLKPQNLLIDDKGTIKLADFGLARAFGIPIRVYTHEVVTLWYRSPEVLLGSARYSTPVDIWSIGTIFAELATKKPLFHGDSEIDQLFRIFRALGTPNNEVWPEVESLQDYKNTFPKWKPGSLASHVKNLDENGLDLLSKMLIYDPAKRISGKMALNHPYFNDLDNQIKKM
# Chain of cdc2 (P14635 whole entry partner, species assumed): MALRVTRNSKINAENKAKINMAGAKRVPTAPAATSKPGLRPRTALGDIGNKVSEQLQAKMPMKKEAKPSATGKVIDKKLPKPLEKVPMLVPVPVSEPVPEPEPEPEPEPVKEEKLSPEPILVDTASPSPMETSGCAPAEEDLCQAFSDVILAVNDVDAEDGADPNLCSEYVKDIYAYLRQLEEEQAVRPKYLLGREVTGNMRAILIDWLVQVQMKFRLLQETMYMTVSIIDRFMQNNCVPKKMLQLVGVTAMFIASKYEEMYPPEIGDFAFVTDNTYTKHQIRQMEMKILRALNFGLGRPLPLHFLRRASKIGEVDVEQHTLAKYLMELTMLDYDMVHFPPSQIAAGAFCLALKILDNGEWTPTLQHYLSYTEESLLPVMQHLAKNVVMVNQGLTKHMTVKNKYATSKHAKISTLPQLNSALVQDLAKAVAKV
structure (smiles),measurement,setting,value
O=C1NC(=O)c2c1c1c3ccccc3n3c1c1c2c2ccccc2n1C1CCC3O1 [SB-218078],IC50,PKC,1000 nM
same,IC50,cdc2,250 nM
same,IC50,Chk1,15 nM
CN(C)CC(C)(C)COc1ccc2[nH]c(-c3cc(NC(=O)c4cnn(Cc5ccccc5)c4)c[nH]c3=O)cc2c1 [V158411],IC50,Chk2,2.5 nM
same,IC50,Chk1,3.5 nM
